Data from paper PMC8848031 (Saudi Journal of Biological Sciences, 2021).
Several values for one entry are separate records, joined by “and”; a condition that tells them apart may be missing. Identical values can stand only once. Values belong to the molecule of their own block, whether it stands above or below them.

Assays:
[1] = molecular target: Saccharomyces cerevisiae α-glucosidase (E.C 3.2.1.20) (Saccharomyces cerevisiae, UniProt P53341); experiment: Alpha-glucosidase inhibition assay; assay type: biochemical; conditions: Alpha-glucosidase inhibition IC50, isolated compounds; acarbose positive control
alpha-glucosidase [2] = molecular target: alpha-glucosidase (Saccharomyces cerevisiae, UniProt P53341); experiment: Inhibitory type assay of BM3 on alpha-glucosidase; assay type: biochemical
alpha-glucosidase [3] = conditions: kinetic studies; ref Adisakwattana et al. (2009); cited from earlier work
alpha-glucosidase [4] = conditions: ref Wu et al., 2017; cited from earlier work
pancreatic lipase enzyme = conditions: extracted from T. stans leaves; ref [28]; cited from earlier work

Sequence of alpha-glucosidase (Saccharomyces cerevisiae, UniProt P53341) (P53341 whole entry): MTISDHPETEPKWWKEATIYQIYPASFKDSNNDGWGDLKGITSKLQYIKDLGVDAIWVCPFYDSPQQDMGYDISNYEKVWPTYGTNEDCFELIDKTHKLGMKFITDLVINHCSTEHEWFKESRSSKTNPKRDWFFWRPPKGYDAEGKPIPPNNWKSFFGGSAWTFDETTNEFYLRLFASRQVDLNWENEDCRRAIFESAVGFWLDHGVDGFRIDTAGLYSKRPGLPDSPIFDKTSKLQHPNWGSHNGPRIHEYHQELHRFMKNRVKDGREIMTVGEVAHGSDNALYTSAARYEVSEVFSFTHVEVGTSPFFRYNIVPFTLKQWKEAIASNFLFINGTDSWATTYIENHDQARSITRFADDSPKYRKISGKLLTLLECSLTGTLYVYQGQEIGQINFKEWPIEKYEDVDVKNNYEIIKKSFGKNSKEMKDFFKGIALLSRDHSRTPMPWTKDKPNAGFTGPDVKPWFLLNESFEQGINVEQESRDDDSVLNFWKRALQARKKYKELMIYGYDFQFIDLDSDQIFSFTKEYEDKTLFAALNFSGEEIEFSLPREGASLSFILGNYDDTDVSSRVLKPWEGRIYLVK
Sequence of Saccharomyces cerevisiae α-glucosidase (E.C 3.2.1.20) (P53341 whole entry): as above

IC50 [1]: 71 ± 2.1 µM
SMILES: COC(=O)c1cc(O)c(O)c(O)c1 [BM2, methyl gallate]

Ki (alpha-glucosidase [2]): 31.2 µM
inhibition type (alpha-glucosidase [2]; Lineweaver-Burk plots, pNPG 1, 2, 4 mM): competitive
Vmax (alpha-glucosidase [2]; no effect of increasing BM3 concentration): 0.049 µM/min
IC50 [1]: 18.2 ± 0.8 µM
SMILES: COC(=O)c1cc(O)c(O)c(OC(=O)c2cc(O)c(O)c(O)c2)c1 [BM3, 3-O-galloylgallic acid methyl ester]

IC50 [1]: 35.6 µM and 36.8 µM
SMILES: O=c1c(O[C@@H]2O[C@H](CO)[C@@H](O)[C@H](O)[C@H]2O)c(-c2ccc(O)c(O)c2)oc2cc(O)cc(O)c12 [NC2, isoquercitrin]

SMILES: O=C(O)/C=C/c1ccc(O)c(O)c1 [NC3, caffeic acid]
inhibition type (alpha-glucosidase [3]): non-competitive

IC50 [1]: 39.2 ± 0.6 µM
SMILES: C[C@H]1[C@H](C)CC[C@]2(C(=O)O)CC[C@]3(C)C(=CC[C@@H]4[C@@]5(C)CC[C@H](O)C(C)(C)[C@@H]5CC[C@]43C)[C@H]12 [TS1, ursolic acid]
inhibition of alpha-glucosidase (alpha-glucosidase [4]): strong inhibition

SMILES: COc1cc(-c2cc(=O)c3c(O)cc(O)cc3o2)ccc1O [TS3, chrysoeriol]
inhibition of pancreatic lipase enzyme (pancreatic lipase enzyme): strong inhibition
